Data set [1] has as its system Enterococcus faecalis. The experiment in a line: MIC by agar-dilution, in-vitro antibacterial test. The data set is classed as cell-based. The settings on record: agar with 5% defibrinated horse blood, 10^4 CFU/spot, 37° C., 5% carbon dioxide, 48 hours. As for the experimental part:
(§1) The following results were obtained on a standard in-vitro test system. The activity is described in terms of the minimum inhibitory concentration (MIC) determined by the agar-dilution technique with an inoculum size of 10^4 CFU/spot. Streptococci and enterococci were tested on agar supplemented with 5% defibrinated horse blood, an inoculum of 10^4 CFU/spot and an incubation temperature of 37° C. in an atmosphere of 5% carbon dioxide for 48 hours—blood is required for the growth of some of the test organisms.

Data set [2] relates to Streptococcus pyogenes C203. The experiment in a line: MIC by agar-dilution, in-vitro antibacterial test. The data set is classed as cell-based. Particulars: agar with 5% defibrinated horse blood, 10^4 CFU/spot, 37° C., 5% carbon dioxide, 48 hours. As for the experimental part: as §1
The test system of data set [3] is Bacillus subtilis. Description: MIC by agar-dilution, in-vitro antibacterial test. Particulars: 10^4 CFU/spot. The data set is classed as cell-based. An excerpt:
(§2) The following results were obtained on a standard in-vitro test system. The activity is described in terms of the minimum inhibitory concentration (MIC) determined by the agar-dilution technique with an inoculum size of 10^4 CFU/spot.

The subject of data set [4] is Staphylococcus aureus Oxford. Description: MIC by agar-dilution, in-vitro antibacterial test. The settings on record: type Oxford, 10^4 CFU/spot, 37° C., 24 hours. Type of data set: cell-based. As for the experimental part: as §2
(§3) Staphylococci were tested on agar, using an inoculum of 10^4 CFU/spot and an incubation temperature of 37° C. for 24 hours—standard test conditions for the expression of methicillin resistance.

Data set [5] has as its system Coagulase Negative Staphylococci MS (methicillin sensitive). Description: MIC by agar-dilution, in-vitro antibacterial test. The settings on record: type MS (methicillin sensitive), 10^4 CFU/spot, 37° C., 24 hours. The data set is classed as cell-based. As for the experimental part: as §2, §3
The test system of data set [6] is Staphylococcus aureus MRQR (methicillin resistant quinoione resistant). The experiment in a line: MIC by agar-dilution, in-vitro antibacterial test. Type of data set: cell-based. Particulars: type MRQR, 10^4 CFU/spot, 37° C., 24 hours. As for the experimental part: as §2, §3
In data set [7] the test system is Staphylococcus aureus Novb. Res. (Novobiocin resistant). The experiment in a line: MIC by agar-dilution, in-vitro antibacterial test. Type of data set: cell-based. Particulars: type Novb. Res. (Novobiocin resistant), 10^4 CFU/spot, 37° C., 24 hours. As for the experimental part: as §2, §3
The test system of data set [8] is Coagulase Negative Staphylococci MR (methicillin resistant). Description: MIC by agar-dilution, in-vitro antibacterial test. The data set is classed as cell-based. Particulars: type MR (methicillin resistant), 10^4 CFU/spot, 37° C., 24 hours. As for the experimental part: as §2, §3

26 compounds from US6362191B1, “Aminometyl oxooxazolidinyl benzene derivatives” (Zeneca Ltd., priority 1997, dated 2002) can be followed below.

Structures are written as SMILES. Values after ≈ are worked out from the molar mass of the structure shown.

As a reminder, the melting point is the temperature, or range, at which the solid turns liquid. In turn, `CC(=O)NC[C@H]1CN(c2ccc(C(=O)c3ccc4ccc(C)cn34)cc2)C(=O)O1` [Example 2, N-([(5S)-N-(4-[6-methylindolizin-3-ylcarbonyl]phenyl)-2-oxooxazolidin-5-yl]methyl)acetamide] gave a melting point of 237 to 239 °C.

On to `CC(=O)NC[C@H]1CN(c2ccc(C(=O)c3ccc4cnc(C)cn34)cc2)C(=O)O1` [Example 4, N-([(5S)-N-(4-[3-methylpyrrolo[1,2-a]pyrazin-6-ylcarbonyl]phenyl)-2-oxooxazolidin-5-yl]methyl)acetamide], for which the melting point lay in the range of 248 to 250 °C.

`CC(=O)NC[C@H]1CN(c2ccc(C(=O)c3cnc4ccccn34)cc2)C(=O)O1` [Example 5, N-([(5S)-N-(4-[imidazo[1,2-a]pyridin-3-ylcarbonyl]phenyl)-2-oxooxazolidin-5-yl]methyl)acetamide] returned a melting point of 218 to 220 °C.

On to `CC(=O)NC[C@H]1CN(c2ccc(C(=O)c3cnc4ncccn34)cc2)C(=O)O1` [Example 6, N-([(5S)-N-(4-[imidazo[1,2-a]pyrimidin-3-ylcarbonyl]phenyl)-2-oxooxazolidin-5-yl]methyl)acetamide], for which the melting point was in the range of 257 to 260 °C.

`CC(=O)NC[C@H]1CN(c2ccc(C(=O)c3cnc4nc(C)cc(C)n34)cc2)C(=O)O1` [Example 7, N-([(5S)-N-(4-[5,7-dimethylimidazo[1,2-a]pyrimidin-3-ylcarbonyl]phenyl)-2-oxooxazolidin-5-yl]methyl)acetamide]: the melting point is 253 to 254 °C.

As for `CC(=O)NC[C@H]1CN(c2ccc(C(=O)c3cnc4ccc(Br)cn34)cc2)C(=O)O1` [Example 8, N-([(5S)-N-(4-[6-bromoimidazo[1,2-a]pyridin-3-ylcarbonyl]phenyl)-2-oxooxazolidin-5-yl]methyl)acetamide], the melting point fell in the range of 230 to 232 °C.

Compound `CC(=O)NC[C@H]1CN(c2ccc(C(=O)c3cnc4c5ccccc5ccn34)cc2)C(=O)O1` [Example 9, N-([(5S)-N-(4-[imidazo[2,1-a]isoquinol-3-ylcarbonyl]phenyl)-2-oxooxazolidin-5-yl]methyl)acetamide] registered a melting point of 239 to 240 °C.

For orientation: MIC means the least concentration at which growth counts as inhibited. Higher therefore signals a less susceptible organism. On to `CC(=O)NC[C@H]1CN(c2ccc(C(=O)c3cnc4sccn34)cc2)C(=O)O1` [Example 10, N-([(5S)-N-(4[imidazo[2,1-b]thiazol-5-ylcarbonyl]phenyl)-2-oxooxazolidin-5-yl]methyl)acetamide], for which the MIC in data set [1] stood at 0.25 µg/mL (≈ 0.65 µM); in data set [2], 0.03 µg/mL (≈ 0.078 µM); in data set [3] it was 0.125 µg/mL (≈ 0.325 µM); in [4], 0.13 µg/mL (≈ 0.338 µM); in [5], 0.06 µg/mL (≈ 0.156 µM); in data set [6], 0.5 µg/mL (≈ 1.3 µM). Also, the MIC in data set [7] and in data set [8] was 0.13 µg/mL (≈ 0.338 µM) each time.

`CC(=O)NC[C@H]1CN(c2ccc(C(=O)c3cnc4c(Cl)cc(Cl)cn34)cc2)C(=O)O1` [Example 11, N-([(5S)-N-(4-[6,8-dichloroimidazo[1,2-a]pyridin-3-ylcarbonyl]phenyl)-2-oxooxazolidin-5-yl]methyl)acetamide]: the melting point was in the range of 228 to 229 °C.

Compound `CC(=O)NC[C@H]1CN(c2ccc(C(=O)c3cc(C#N)c4ccccn34)cc2)C(=O)O1` [Example 12, N-([(5S)-N-(4-[1-cyanoindolizin-3-ylcarbonyl]phenyl)-2oxooxazolidin-5-yl]methyl)acetamide] showed a melting point of 255 to 257 °C.

As to `CC(=O)NC[C@H]1CN(c2ccc(C(=O)c3cnc4cc(C)ccn34)cc2)C(=O)O1` [Example 13, N-([(5S)-N-(4-[7-methylimidazo[1,2-a]pyridin-3-ylcarbonyl]phenyl)-2-oxooxazolidin-5-yl]methyl)acetamide], the melting point fell in the range of 254 to 256 °C.

The compound `CC(=O)NC[C@H]1CN(c2ccc(C(=O)c3cnc4ccc(Cl)cn34)cc2)C(=O)O1` [Example 14, N-([(5S)-N-(4-[6-chloroimidazo[1,2-a]pyridin-3-ylcarbonyl]phenyl)-2-oxooxazolidin-5-yl]methyl)acetamide] came in with a melting point of 234 to 235 °C.

In the case of `CC(=O)NC[C@H]1CN(c2ccc(C(=O)c3cnc4ccc([N+](=O)[O-])cn34)cc2)C(=O)O1` [Example 15, N-([(5S)-N-(4-[6-nitroimidazo[1,2-a]pyridin-3-ylcarbonyl]phenyl)-2-oxooxazolidin-5-yl]methyl)acetamide], the melting point lay within 223 to 225 °C.

For `CC(=O)NC[C@H]1CN(c2ccc(C(=O)c3cnc4c([N+](=O)[O-])cccn34)cc2)C(=O)O1` [Example 16, N-([(5S)-N-(4-[8-nitroimidazo[1,2-a]pyridin-3-ylcarbonyl]phenyl)-2-oxooxazolidin-5-yl]methyl)acetamide], the melting point fell in the range of 229 to 230 °C.

As for `CC(=O)NC[C@H]1CN(c2ccc(C(=O)c3cnc4c(Br)cc(C)cn34)cc2)C(=O)O1` [Example 19, N-([(5S)-N-(4-[8-bromo-6-methylimidazo[1,2-a]pyridin-3-ylcarbonyl]phenyl)2-oxooxazolidin-5-yl]methyl)acetamide], the melting point fell in the range of 221 to 223 °C.

`CC(=O)NC[C@H]1CN(c2ccc(C(=O)c3cnc4c(OCc5ccccc5)cccn34)cc2)C(=O)O1` [Example 20, N-([(5S)-N-(4-[8-benzyloxyimidazo[1,2-a]pyridin-3-ylcarbonyl]phenyl)-2-oxooxazolidin-5-yl]methyl)acetamide] came in with a melting point of 193 to 195 °C.

For the compound `CC(=O)NC[C@H]1CN(c2ccc(C(=O)c3cnc4ccccn34)c(F)c2)C(=O)O1` [Example 22, N-([(5S)-N-(4[imidazo[1,2-a]pyridin-3-ylcarbonyl]{3-fluorophenyl})-2-oxooxazolidin-5-yl]methyl)acetamide], the melting point is 196 to 198 °C.

As to `COC(=O)c1cccn2c(C(=O)c3ccc(N4C[C@H](CNC(C)=O)OC4=O)cc3)cnc12` [Example 23, N-([(5S)-N-(4-[8-methoxycarbonylimidazo[1,2-a]pyridin-3-ylcarbonyl]phenyl)-2-oxooxazolidin-5-yl]methyl)acetamide], the melting point was 202 to 204 °C.

Consider `COC(=O)c1ccc2ncc(C(=O)c3ccc(N4C[C@H](CNC(C)=O)OC4=O)cc3)n2c1` [Example 24, N-([(5S)-N-(4-[6-methoxycarbonylimidazo[1,2-a]pyridin-3-ylcarbonyl]phenyl)-2-oxooxazolidin-5-yl]methyl)acetamide], for which the melting point lay within 231 to 233 °C.

Take `CC(=O)NC[C@H]1CN(c2ccc(C(=O)c3cnc4cc(-c5ccccc5)ccn34)cc2)C(=O)O1` [Example 25, N-([(5S)-N-(4-[7-phenylimidazo[1,2-a]pyridin-3-ylcarbonyl]phenyl)-2-oxooxazolidin-5-yl]methyl)acetamide]: the melting point lay in the range of 256 to 258 °C.

In the case of `CC(=O)NC[C@H]1CN(c2ccc(C(=O)c3cnc4c(O)cccn34)cc2)C(=O)O1` [Example 26, N-([(5S)-N-(4-[8-hydroxyimidazo[1,2-a]pyridin-3-ylcarbonyl]phenyl)-2-oxooxazolidin-5-yl]methyl)acetamide], the melting point is 253 to 255 °C (dec.).

In turn, `CC(=O)NC[C@H]1CN(c2ccc(C(=O)c3cnc4ccc(F)cn34)cc2)C(=O)O1` [Example 27, N-([(5S)-N-(4-[6-fluoroimidazo[1,2-a]pyridin-3-ylcarbonyl]phenyl)-2-oxooxazolidin-5-yl]methyl)acetamide] showed a melting point of 224 to 226 °C.

`CC(=O)NC[C@H]1CN(c2ccc(C(=O)c3cnc4cnc(Br)cn34)cc2)C(=O)O1` [Example 43, N-([(5S)-N-(4-[6-bromoimidazo[1,2-a]pyrazin-3-ylcarbonyl]phenyl)-2-oxooxazolidin-5-yl]methyl)acetamide] gave a melting point of 216 to 220 °C.

Compound `CC(=O)NC[C@H]1CN(c2ccc(C(=O)c3cnc4ccc(Cl)nn34)cc2)C(=O)O1` [Example 44, N-([(5S)-N-(4-[6-chloroimidazo[1,2-b]pyridazin-3-ylcarbonyl]phenyl)-2-oxooxazolidin-5-yl]methyl)acetamide] yielded a melting point of 194 to 196 °C.

For the compound `CC(=O)NC[C@H]1CN(c2ccc(C(=O)c3cnc4cnccn34)cc2)C(=O)O1` [Example 45, N-([(5S)-N-(4-[imidazo[1,2-a]pyrazin-3-ylcarbonyl]phenyl)-2-oxooxazolidin-5-yl]methyl)acetamide], the melting point was in the range of 254 to 256 °C.

The compound `CC(=O)NC[C@H]1CN(c2ccc(C(=O)c3ccc[nH]3)cc2)C(=O)O1` [Example 47, N-([(5S)-N-(4-[pyrrol-2-ylcarbonyl]phenyl)-2-oxooxazolidin-5-yl]methyl)acetamide] returned a melting point of 202 to 205 °C.
